Results taken from PubChem BioAssay (NCI).
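Results reflect a 48-hour exposure of cells in 96-well plates to compound at five concentrations. GI50 marks 50% less growth. TGI is the concentration that stops growth completely.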

How the values were obtained:
Assay in all cases: NCI anticancer screen, dose series, 48 h
[1] = tested on: 786-0 renal
[2] = tested on: A498 renal
[3] = tested on: A549 NSCLC
[4] = tested on: ACHN renal
[5] = tested on: BT-549 breast
[6] = tested on: CAKI-1 renal
[7] = tested on: CCRF-CEM leukemia
[8] = tested on: COLO 205 colon
[9] = tested on: DU-145 prostate
[10] = tested on: EKVX NSCLC
[11] = tested on: HCC-2998 colon
[12] = tested on: HCT-15 colon
[13] = tested on: HL-60(TB) leukemia
[14] = tested on: HOP-62 NSCLC
[15] = tested on: HOP-92 NSCLC
[16] = tested on: HS 578T breast
[17] = tested on: HT29 colon
[18] = tested on: IGROV1 ovarian
[19] = tested on: K-562 leukemia
[20] = tested on: KM12 colon
[21] = tested on: LOX IMVI melanoma
[22] = tested on: MALME-3M melanoma
[23] = tested on: MCF7 breast
[24] = tested on: MDA-MB-231 breast
[25] = tested on: MDA-MB-435
[26] = tested on: MOLT-4 leukemia
[27] = tested on: NCI-H226 lung
[28] = tested on: NCI-H23 lung
[29] = tested on: NCI-H460 lung
[30] = tested on: NCI-H522 lung
[31] = tested on: NCI/ADR-RES ovarian
[32] = tested on: OVCAR-3 ovarian
[33] = tested on: OVCAR-4 ovarian
[34] = tested on: OVCAR-5 ovarian
[35] = tested on: OVCAR-8 ovarian
[36] = tested on: PC-3 prostate
[37] = tested on: RPMI-8226 leukemia
[38] = tested on: RXF 393 renal
[39] = tested on: SF-268 CNS
[40] = tested on: SF-295 CNS
[41] = tested on: SF-539 CNS
[42] = tested on: SK-MEL-2 melanoma
[43] = tested on: SK-MEL-28 melanoma
[44] = tested on: SK-MEL-5 melanoma
[45] = tested on: SK-OV-3 ovarian
[46] = tested on: SN12C renal
[47] = tested on: SNB-19 CNS
[48] = tested on: SNB-75 CNS
[49] = tested on: SR leukemia
[50] = tested on: SW-620 colon
[51] = tested on: T-47D breast
[52] = tested on: TK-10 renal
[53] = tested on: U251 CNS
[54] = tested on: UACC-257 melanoma
[55] = tested on: UACC-62 melanoma
[56] = tested on: UO-31 renal

**Q.** Which GI50 [1] does the source give for `CC(=O)N1N=C2/C(=C/c3ccccc3)CC(C)CC2C1c1ccccc1` (configuration not stated) here?
**A.** The GI50 was 17.7 µM.

**Q.** What about the TGI [1] of the same molecule?
**A.** The TGI was 34.8 µM.

**Q.** And the GI50 [2]?
**A.** Its GI50 is 16.5 µM.

**Q.** What about the TGI [2] of the same molecule?
**A.** Its TGI is 30.7 µM.

**Q.** What about the GI50 [3] of the same molecule?
**A.** The GI50 was 13.3 µM.

**Q.** And the TGI [3]?
**A.** The TGI was 51.5 µM.

**Q.** And the GI50 [4]?
**A.** The GI50 was 13 µM.

**Q.** What about the TGI [4] of the same molecule?
**A.** Its TGI is 26.8 µM.

**Q.** And the GI50 [5]?
**A.** The GI50 was 15.6 µM.

**Q.** What about the TGI [5] of the same molecule?
**A.** Its TGI is 33.1 µM.

**Q.** And the GI50 [6]?
**A.** Its GI50 is 19.1 µM.

**Q.** And the TGI [6]?
**A.** The TGI was 41.8 µM.

**Q.** And the GI50 [7]?
**A.** Its GI50 is 15.5 µM.

**Q.** And the TGI [7]?
**A.** The TGI was 53.9 µM.

**Q.** And the GI50 [8]?
**A.** The GI50 was 16.5 µM.

**Q.** What about the TGI [8] of the same molecule?
**A.** The TGI was 45.6 µM.

**Q.** And the GI50 [9]?
**A.** Its GI50 is 16.1 µM.

**Q.** What about the TGI [9] of the same molecule?
**A.** The TGI was 33.5 µM.

**Q.** And the GI50 [10]?
**A.** The GI50 was 11.9 µM.

**Q.** And the TGI [10]?
**A.** The TGI was 27.3 µM.

**Q.** What about the GI50 [11] of the same molecule?
**A.** The GI50 was 8.86 µM.

**Q.** And the TGI [11]?
**A.** Its TGI is 21.2 µM.

**Q.** And the GI50 [12]?
**A.** Its GI50 is 13.7 µM.

**Q.** What about the TGI [12] of the same molecule?
**A.** Its TGI is 28.9 µM.

**Q.** What about the GI50 [13] of the same molecule?
**A.** Its GI50 is 8.82 µM.

**Q.** And the TGI [13]?
**A.** Its TGI is 32.1 µM.

**Q.** What about the GI50 [14] of the same molecule?
**A.** Its GI50 is 16.6 µM.

**Q.** What about the TGI [14] of the same molecule?
**A.** Its TGI is 32.6 µM.

**Q.** What about the GI50 [15] of the same molecule?
**A.** The GI50 was 13.9 µM.

**Q.** What about the TGI [15] of the same molecule?
**A.** The TGI was 31.2 µM.

**Q.** What about the GI50 [16] of the same molecule?
**A.** Its GI50 is 15.4 µM.

**Q.** And the TGI [16]?
**A.** The TGI was 34.6 µM.

**Q.** And the GI50 [17]?
**A.** The GI50 was 12.9 µM.

**Q.** What about the TGI [17] of the same molecule?
**A.** The TGI was 29.9 µM.

**Q.** What about the GI50 [18] of the same molecule?
**A.** Its GI50 is 12.1 µM.

**Q.** And the TGI [18]?
**A.** Its TGI is 41.9 µM.

**Q.** What about the GI50 [19] of the same molecule?
**A.** The GI50 was 4.29 µM.

**Q.** What about the TGI [19] of the same molecule?
**A.** The TGI was 20.7 µM.

**Q.** What about the GI50 [20] of the same molecule?
**A.** Its GI50 is 12.4 µM.

**Q.** And the TGI [20]?
**A.** Its TGI is 33.9 µM.

**Q.** What about the GI50 [21] of the same molecule?
**A.** The GI50 was 13.9 µM.

**Q.** What about the TGI [21] of the same molecule?
**A.** The TGI was 29.9 µM.

**Q.** And the GI50 [22]?
**A.** The GI50 was 18 µM.

**Q.** And the TGI [22]?
**A.** The TGI was 37.4 µM.

**Q.** What about the GI50 [23] of the same molecule?
**A.** The GI50 was 10.1 µM.

**Q.** And the TGI [23]?
**A.** The TGI was 22.6 µM.

**Q.** And the GI50 [24]?
**A.** Its GI50 is 14.2 µM.

**Q.** And the TGI [24]?
**A.** Its TGI is 31.8 µM.

**Q.** What about the GI50 [25] of the same molecule?
**A.** Its GI50 is 11.2 µM.

**Q.** And the TGI [25]?
**A.** Its TGI is 27.7 µM.

**Q.** And the GI50 [26]?
**A.** Its GI50 is 8.72 µM.

**Q.** And the TGI [26]?
**A.** The TGI was 28.1 µM.

**Q.** What about the GI50 [27] of the same molecule?
**A.** The GI50 was 15.3 µM.

**Q.** And the TGI [27]?
**A.** Its TGI is 34 µM.

**Q.** What about the GI50 [28] of the same molecule?
**A.** The GI50 was 14.4 µM.

**Q.** What about the TGI [28] of the same molecule?
**A.** Its TGI is 28 µM.

**Q.** What about the GI50 [29] of the same molecule?
**A.** Its GI50 is 13 µM.

**Q.** What about the TGI [29] of the same molecule?
**A.** The TGI was 27.8 µM.

**Q.** What about the GI50 [30] of the same molecule?
**A.** The GI50 was 13.8 µM.

**Q.** And the TGI [30]?
**A.** The TGI was 31.7 µM.

**Q.** And the GI50 [31]?
**A.** The GI50 was 12.5 µM.

**Q.** And the TGI [31]?
**A.** The TGI was 28.8 µM.

**Q.** What about the GI50 [32] of the same molecule?
**A.** The GI50 was 14.9 µM.

**Q.** And the TGI [32]?
**A.** The TGI was 32.6 µM.

**Q.** What about the GI50 [33] of the same molecule?
**A.** Its GI50 is 10.8 µM.

**Q.** What about the TGI [33] of the same molecule?
**A.** Its TGI is 25.2 µM.

**Q.** And the GI50 [34]?
**A.** Its GI50 is 17.7 µM.

**Q.** And the TGI [34]?
**A.** The TGI was 32.2 µM.

**Q.** What about the GI50 [35] of the same molecule?
**A.** The GI50 was 16.1 µM.

**Q.** And the TGI [35]?
**A.** The TGI was 50.6 µM.

**Q.** What about the GI50 [36] of the same molecule?
**A.** The GI50 was 10.7 µM.

**Q.** What about the TGI [36] of the same molecule?
**A.** Its TGI is 40.2 µM.

**Q.** And the GI50 [37]?
**A.** The GI50 was 9.54 µM.

**Q.** And the TGI [37]?
**A.** The TGI was 76.1 µM.

**Q.** What about the GI50 [38] of the same molecule?
**A.** Its GI50 is 25.6 µM.

**Q.** And the TGI [38]?
**A.** Its TGI is over 100 µM.

**Q.** What about the GI50 [39] of the same molecule?
**A.** Its GI50 is 14.8 µM.

**Q.** And the TGI [39]?
**A.** The TGI was 30.6 µM.

**Q.** What about the GI50 [40] of the same molecule?
**A.** Its GI50 is 15.9 µM.

**Q.** And the TGI [40]?
**A.** Its TGI is 35.1 µM.

**Q.** And the GI50 [41]?
**A.** Its GI50 is 17.4 µM.

**Q.** What about the TGI [41] of the same molecule?
**A.** The TGI was 32.7 µM.

**Q.** And the GI50 [42]?
**A.** The GI50 was 18.7 µM.

**Q.** What about the TGI [42] of the same molecule?
**A.** Its TGI is 46.3 µM.

**Q.** What about the GI50 [43] of the same molecule?
**A.** Its GI50 is 18.5 µM.

**Q.** And the TGI [43]?
**A.** Its TGI is 36.5 µM.

**Q.** What about the GI50 [44] of the same molecule?
**A.** Its GI50 is 11.6 µM.

**Q.** What about the TGI [44] of the same molecule?
**A.** Its TGI is 25.4 µM.

**Q.** What about the GI50 [45] of the same molecule?
**A.** Its GI50 is 17.1 µM.

**Q.** And the TGI [45]?
**A.** The TGI was 40.3 µM.

**Q.** What about the GI50 [46] of the same molecule?
**A.** Its GI50 is 14.8 µM.

**Q.** And the TGI [46]?
**A.** The TGI was 30.4 µM.

**Q.** And the GI50 [47]?
**A.** The GI50 was 14.5 µM.

**Q.** And the TGI [47]?
**A.** Its TGI is 30.1 µM.

**Q.** And the GI50 [48]?
**A.** Its GI50 is 15.6 µM.

**Q.** And the TGI [48]?
**A.** The TGI was 30.9 µM.

**Q.** What about the GI50 [49] of the same molecule?
**A.** The GI50 was 10.7 µM.

**Q.** And the TGI [49]?
**A.** Its TGI is 33 µM.

**Q.** And the GI50 [50]?
**A.** The GI50 was 15.2 µM.

**Q.** What about the TGI [50] of the same molecule?
**A.** Its TGI is 33.2 µM.

**Q.** And the GI50 [51]?
**A.** The GI50 was 10.7 µM.

**Q.** And the TGI [51]?
**A.** The TGI was 34.7 µM.

**Q.** What about the GI50 [52] of the same molecule?
**A.** The GI50 was 19.7 µM.

**Q.** What about the TGI [52] of the same molecule?
**A.** The TGI was 44.9 µM.

**Q.** What about the GI50 [53] of the same molecule?
**A.** The GI50 was 11.7 µM.

**Q.** What about the TGI [53] of the same molecule?
**A.** The TGI was 25.4 µM.

**Q.** And the GI50 [54]?
**A.** The GI50 was 16.5 µM.

**Q.** What about the TGI [54] of the same molecule?
**A.** Its TGI is 32.6 µM.

**Q.** And the GI50 [55]?
**A.** The GI50 was 12.6 µM.

**Q.** What about the TGI [55] of the same molecule?
**A.** Its TGI is 26 µM.

**Q.** And the GI50 [56]?
**A.** The GI50 was 12.8 µM.

**Q.** And the TGI [56]?
**A.** The TGI was 31.1 µM.
